Test results reported in patent US20150216865A1, “METHODS OF TREATING A BRUTON'S TYROSINE KINASE DISEASE OR DISORDER” (Celgene Avilomics Research, Inc., priority 2012, published 2015).
“Also recorded” adds a separate entry of the source.

How the values were obtained:
[1] = system: semi-established CIA Dba1 mice; test: Semi-established collagen induced arthritis (CIA) model; type: in vivo, mouse; conditions: 3 mg/kg, 10 mg/kg or 30 mg/kg daily
Description: Semi-Established Collagen Induced Arthritis (CIA) Arthritis Model. Experiments were carried out at Bolder Biopath, Boulder, Colo. All experiments were carried out in compliance with regulations of the Institutional Animal Care and Use Committee and were conducted in accordance with principles and procedures dictated by the highest standards of humane animal care. Dba1 mice were injected at the base of the tail with 150 μL of Freund's Complete Adjuvant (Sigma) containing bovine type II collagen (Elastin Products, Owensville, Mo.) (2 mg/ml) on day 0 and again on day 21. Mice were randomized into treatment groups on study day 21, and treatment was initiated. Treatment continued daily (3 mg/kg, 10 mg/kg or 30 mg/kg QD at 24 hour intervals) through day 33, and mice were terminated on day 33 (animals 1-6) or day 34 (animals 7-12). Onset of arthritis occurred between study days 21 and 34. Clinical scores were assessed for each of the paws on study days 21-34 using the following scoring system: 0=normal, 1=one hind or fore paw joint affected or minimal diffuse erythema and swelling, 2=two hind or fore paw joints affected or mild diffuse erythema and swelling, 3=three hind or fore paw joints affected or moderate diffuse erythema and swelling, 4=marked diffuse erythema and swelling or =four digit joints affected, 5=severe diffuse erythema and severe swelling entire paw, unable to flex digits. Spleens and plasma were harvested at necropsy (day 33 for animals 1-6 and day 34 for animals 7-12) and paws were removed and fixed in formalin for histopathological analysis.

[2] = Clinical single dose study in healthy human volunteers, pharmacokinetics; type: in vivo; conditions: single oral 2 mg/kg
Description: Clinical Study: A double blind, placebo-controlled, ascending single dose, randomized study in normal healthy human volunteers was conducted at a single clinical research unit in accordance with Declaration of Helsinki principles. Informed consent statements were obtained from all subjects prior to inclusion in the study. Subjects were admitted to the unit 1 day before dosing and discharged 96 h after dosing.

Environmental stability = type: physicochemical
[3] = NOD mouse model of Sjogren's syndrome, bodyweight; type: in vivo
Description: Non-Obese Diabetic Mouse (NOD) Model of Sjogren's Syndrome. Male Non Obese Diabetic (NOD) mice from the KWS BioTest NOD colony and male BALB/c mice were randomly allocated to experimental groups and allowed to acclimatise for one week prior to the beginning of the study. From six weeks of age, animals were treated according to the administration schedule in Table 5, below. Each group consisted of n=12 animals. The administration volume was 15 ml/kg from 6-12 weeks of age. The administration volume was then decreased to 10 ml/kg from 13-20 weeks of age. The vehicle was distilled water pH 3.0-3.5 for Group 7. […] Animals were weighed at the start of the study (Day 0) and once per week until termination. […] Bodyweight data, expressed in grams, were analysed by two-way ANOVA followed by Dunnett's post-test for multiple comparisons to the vehicle-treated group and presented as mean bodyweights for each group (FIG. 12). Bodyweight data, expressed as a percentage of the initial bodyweight, were analysed by two-way ANOVA followed by Dunnett's post-test for multiple comparisons to the vehicle-treated group and presented as mean percentage of the initial bodyweight ±SEM (FIG. 13).

male NOD mice [4] = test: NOD mouse model of Sjogren's syndrome, glycaemia / incidence of diabetes; type: in vivo
Description: Non-Obese Diabetic Mouse (NOD) Model of Sjogren's Syndrome. Male Non Obese Diabetic (NOD) mice from the KWS BioTest NOD colony and male BALB/c mice were randomly allocated to experimental groups and allowed to acclimatise for one week prior to the beginning of the study. From six weeks of age, animals were treated according to the administration schedule in Table 5, below. Each group consisted of n=12 animals. The administration volume was 15 ml/kg from 6-12 weeks of age. The administration volume was then decreased to 10 ml/kg from 13-20 weeks of age. The vehicle was distilled water pH 3.0-3.5 for Group 7. […] Glycaemia. From fourteen weeks of age, animals were monitored weekly for signs of hyperglycaemia. A blood sample was taken from a superficial vein and the blood glucose level was measured using Free Style Optium glucose test strips (Abbott) and a Boots glucose reader. Glycaemia. Blood glucose was monitored once per week from 14 weeks of age. Animals with glycaemia equal to or greater than 11 mM on two consecutive weekly readings were considered diabetic.

male NOD mice [5] = test: NOD mouse model, lachrymal gland secretion (cotton thread test); type: in vivo; conditions: besylate
Description: Non-Obese Diabetic Mouse (NOD) Model of Sjogren's Syndrome. Male Non Obese Diabetic (NOD) mice from the KWS BioTest NOD colony and male BALB/c mice were randomly allocated to experimental groups and allowed to acclimatise for one week prior to the beginning of the study. From six weeks of age, animals were treated according to the administration schedule in Table 5, below. Each group consisted of n=12 animals. The administration volume was 15 ml/kg from 6-12 weeks of age. The administration volume was then decreased to 10 ml/kg from 13-20 weeks of age. The vehicle was distilled water pH 3.0-3.5 for Group 7. The vehicle was 0.5% methylcellulose and 0.25% Tween® 80 for all other groups.
Measurement of lachrymal gland secretion. Lachrymal gland secretion was measured every other week from six weeks of age using a cotton thread test. Briefly, animals were anaesthetised and a fluorescein-stained cotton thread was inserted under the eye lid in the medial canthus region and held in place for two minutes. Results for each group were graphed and presented with SEM's.
Lachrymal Gland Secretion. Lachrymal gland secretion was measured by the cotton thread test. Data are expressed as millimetres per gram bodyweight. Data from this readout are indicative of inflammatory changes in the lachrymal gland, but significant changes are typically only seen from weeks 18 onwards in NOD mice. Data were analysed by two-way ANOVA for repeated measures followed by Dunnett's post-test for multiple comparisons to the vehicle-treated group and presented as mean±SEM (FIG. 14).

C=CC(=O)Nc1cccc(Nc2nc(Nc3ccc(OCCOC)cc3)ncc2F)c1 [Compound 1 besylate, N-(3-(5-fluoro-2-(4-(2-methoxyethoxyl)phenylamino)pyrimidin-4-ylamino)phenyl)acrylamide besylate]
effect on clinical parameters of developing type II collagen arthritis [1]: significant beneficial effect | Cmax ([2]; plasma, 6 subjects, read-out: mean maximum plasma concentration (Cmax)): 0.542 µg/mL | half-life ([2]; plasma, read-out: median terminal elimination half-life (converted)): 1.9 h | time to peak plasma concentrations [2]: 30 to 120 min | plasma concentrations at 48 hours post dose ([2]; all subjects): below the lower limit of quantification | plasma concentrations within 24 hours post dose ([2]; limit of detection 0.1 ng/mL): near or below the lower limit of detection | environmental instabilities (heat, acid, base) (Environmental stability): no environmental instabilities | bodyweight gain (% of initial bodyweight) vs vehicle-treated group ([3]; 10 mg/kg SID, 8 weeks and 10 to 20 weeks of age): significant reduction in bodyweight gain | bodyweight (grams) vs vehicle-treated group ([3]; 10 mg/kg SID, at 13, 17, 19 and 20 weeks of age): significant decrease in bodyweight | bodyweight gain (% of initial bodyweight) vs vehicle-treated group ([3]; 30 mg/kg SID, 11 to 20 weeks of age): significant reduction in bodyweight gain | bodyweight (grams) vs vehicle-treated group ([3]; 30 mg/kg SID, from 14 to 20 weeks of age): significant decrease in bodyweight | bodyweight gain (% of initial bodyweight) vs vehicle-treated group ([3]; 50 mg/kg twice daily, 10 to 20 weeks of age): significant reduction in bodyweight gain | bodyweight (grams) vs vehicle-treated group ([3]; 50 mg/kg twice daily, from 11 to 20 weeks of age): highly significant decrease in bodyweight | bodyweight gain (% of initial bodyweight) vs vehicle-treated group ([3]; 100 mg/kg SID, 8 weeks and 10 to 20 weeks of age): significant reduction in bodyweight gain | bodyweight gain (% of initial bodyweight) vs vehicle-treated group ([3]; ad libitum 0.16 mg/ml in drinking water, 8 to 20 weeks of age): highly significant reduction in bodyweight gain | bodyweight (grams) vs vehicle-treated group ([3]; ad libitum 0.16 mg/ml in drinking water, 8 weeks and 10 to 20 weeks of age): highly significant decrease in bodyweight | Incidence of Diabetes (male NOD mice [4]; 0.16 mg/kg ad libitum, age 18 weeks): 8% (1/12) | Incidence of Diabetes (male NOD mice [4]; 0.16 mg/kg ad libitum, age 19 weeks): 17% (2/12) | Incidence of Diabetes (male NOD mice [4]; 0.16 mg/kg ad libitum, age 20 weeks): 17% (2/12) | Incidence of Diabetes (male NOD mice [4]; 10 mg/kg SID, age 18 weeks): 17% (2/12) | Incidence of Diabetes (male NOD mice [4]; 10 mg/kg SID, age 19 weeks): 17% (2/12) | Incidence of Diabetes (male NOD mice [4]; 10 mg/kg SID, age 20 weeks): 18% (2/11) | Incidence of Diabetes (male NOD mice [4]; 30 mg/kg SID, age 18 weeks): 0 | Incidence of Diabetes (male NOD mice [4]; 30 mg/kg SID, age 19 weeks): 0 | Incidence of Diabetes (male NOD mice [4]; 30 mg/kg SID, age 20 weeks): 0 | Incidence of Diabetes (male NOD mice [4]; 50 mg/kg BID, age 18 weeks): 0 | Incidence of Diabetes (male NOD mice [4]; 50 mg/kg BID, age 19 weeks): 0 | Incidence of Diabetes (male NOD mice [4]; 50 mg/kg BID, age 20 weeks): 0 | Incidence of Diabetes (male NOD mice [4]; 100 mg/kg SID, age 18 weeks): 0 | Incidence of Diabetes (male NOD mice [4]; 100 mg/kg SID, age 19 weeks): 0 | Incidence of Diabetes (male NOD mice [4]; 100 mg/kg SID, age 20 weeks): 0 | lachrymal gland secretion vs vehicle (male NOD mice [5]; 30 mg/kg SID, 10, 18 and 20 weeks of age): significantly higher; also recorded: statistically significant increase | lachrymal gland secretion vs vehicle (male NOD mice [5]; 50 mg/kg twice daily, 6, 8, 10, 18 and 20 weeks of age): significantly higher; also recorded: statistically significant increase | lachrymal gland secretion vs vehicle (male NOD mice [5]; 100 mg/kg SID, 8, 10, 12, 16, 18 and 20 weeks of age): significantly higher; also recorded: statistically significant increase | lachrymal gland secretion vs vehicle (male NOD mice [5]; ad libitum 0.16 mg/ml in drinking water, 10, 16, 18 and 20 weeks of age): significantly higher; also recorded: statistically significant increase
